According to patent publication US20120009152A1, “NITRIC OXIDE DONORS FOR TREATMENT OF DISEASE AND INJURY” (priority 2002, published 2012):

Assays:
Format in all cases: in vivo, rat
[1] = tested on: BrdU-immunoreactive cells in the subventricular zone and dentate gyrus; experiment: BrdU cell proliferation in subventricular zone and dentate gyrus after embolic MCA occlusion; details: 28 days
Protocol: Male Wistar rats weighing 320 to 380 g were used in the present study. The middle cerebral artery (MCA) was occluded by placement of an embolus at the origin of the MCA. […] Ischemic rats (n=9) were treated with the same volume of tap water as a control group. Functional tests were performed and body weight was measured before ischemia and at 4, 7, 14, 21, and 28 days after onset of MCA occlusion. All rats were killed 28 days after MCA occlusion. […] These rats were killed 1 hour after the last treatment for measurements of brain levels of cGMP. […] Reverse transcription (RT)-polymerase chain reaction (PCR) was performed to detect PDE5 in brain tissue. Bromodeoxyuridine (BrdU) was used to measure cell proliferation. Animals received daily intraperitoneal injections of BrdU (50 mg/kg; Sigma) on the day of stroke and subsequently for 14 consecutive days. Cell proliferation in the subventricular zone and dentate gyrus was measured in rats killed at 28 days (in experimental protocol 1, all 4 groups) after ischemia. […] Sections were incubated with a primary antibody to BrdU (1:100) at room temperature for 1 hour and then incubated with biotinylated secondary antibody (1:200, Vector) for 1 hour. Reaction product was detected with the use of 3′3′-diaminobenzidine-tetrahydrochloride (DAB; Sigma), For ′III-tubulin (TuJ1) immunostaining, which identifies immature neurons, 12 coronal sections were incubated with the antibody against TuJ1 (1:1000) at 4° C. overnight and were then incubated with a biotinylated horse anti-mouse immunoglobulin antibody at room temperature for 30 minutes. Double immunofluorescent staining for BrdU and TuJ1 as performed to determine whether BrdU-immunoreactive cells express neuronal phenotype on the coronal sections. Measurements of BrdU-immunoreactive cells were performed on paraffin-embedded 6-μm-thick sections. 11 BrdU-immunostained sections were digitized with the use of a 40 objective (Olympus BX40) via the MCID computer imaging analysis system (Imaging Research). BrdU-immunoreactive nuclei were counted on a computer monitor to improve visualization and in 1 focal plane to avoid oversampling. All BrdU-immunoreactive-positive nuclei were counted in both the ipsilateral and contralateral walls of the lateral ventricle of the subventricular zone and in the dentate gyrus. […] For the dentate gyrus, every 50th coronal section was selected from each rat for a total of 8 sections between anteroposterior 5.86 mm and anteroposterior 2.96 mm of the granule cell layer. BrdU-immunoreactive nuclei in the subventricular zone and in the dentate gyrus are presented as the number of the cells per square millimeter (mean SE). […] Numbers of TuJ1-immunoreactive cells were counted in the subventricular one and striatum, and data are presented as the number of TuJ1-immunoreactive cells per section (mean SE).

[2] = tested on: rats subjected to embolic middle cerebral artery occlusion; experiment: Infarct volume 28 days after embolic MCA occlusion; details: 28 days after ischemia
Protocol: Male Wistar rats weighing 320 to 380 g were used in the present study. The middle cerebral artery (MCA) was occluded by placement of an embolus at the origin of the MCA.
Ischemic rats (n=9) were treated with the same volume of tap water as a control group. Functional tests were performed and body weight was measured before ischemia and at 4, 7, 14, 21, and 28 days after onset of MCA occlusion. All rats were killed 28 days after MCA occlusion. […] These rats were killed 1 hour after the last treatment for measurements of brain levels of cGMP. […] Experiments were also performed to examine brain PDE5, nonischemic rats and ischemic rats were killed at 2, 4, 24, 48, and 168 hours after the onset of ischemia (n=3 for each time point). Reverse transcription (RT)-polymerase chain reaction (PCR) was performed to detect PDE5 in brain tissue.
Measurement of infarct volume was measured on 7 hematoxylin and eosin-stained coronal sections with the use of a Global Laboratory Image analysis program (Data Translation). Briefly, the area of both hemispheres and the infarct area (mm 2) were calculated by tracing the area on the computer screen. Infarct volume (mm 3) was determined by multiplying the appropriate area by the section interval thickness. The infarct volume is presented as the percent-age of infarct volume of the contralateral hemisphere (indirect volume calculation).

[3] = tested on: BrdU immunoreactive cells in dentate gyrus, SVZ and OB; experiment: Cell proliferation (BrdU) in non-ischemic aged rats; details: non-ischemic 18-month-old rats; DETA/NONOate 0.4 mg/kg daily 7 days; vs saline
Protocol: […] […] I.V bolus doses of DETA/NONOate (0.1 mg/kg each, every 15 min, and total dose of 0.4 mg/kg) on the first experimental day and DETA/NONOate (0.4 mg/kg) was administered (i.p) daily for an additional 6 consecutive days. Rats that received saline were used as a control group. Bromodeoxyuridine (BrdU) was used as mitotic labeling to measure cell proliferation. Animals received daily i.p injections of BrdU (50 mg/kg, Sigma) on the first experimental day and subsequently for 14 consecutive days. Rats were sacrificed at 14 and 42 days after the treatment. BrdU immunoreactive nuclei were counted on a computer monitor to improve visualization and in one focal plane to avoid over-sampling. Structures were sampled either by selecting predetermined areas on each section (OB) or by analyzing entire structures on each section (SVZ and dentate gyrus) (Zhang et al., 2001). All BrdU immunoreactive-positive nuclei in these areas are presented as the number of the BrdU immunoreactive cells/mm^2. Density for the selected several sections was averaged to obtain a mean density value for each animal (Zhang et al., 2001).
The question of whether this induction of neurogenesis by means of an NO donor in young adult (3-4 month old) rats would also be present in older rats was also tested. […]

[4] = Sildenafil 2 mg/kg from 2 h after MCA occlusion
[5] = Sildenafil 2 mg/kg from 24 h after MCA occlusion
[6] = Sildenafil 5 mg/kg from 2 h after MCA occlusion

| Compound | Density of newborn cells, Dentate Gyrus Contralateral [1, 4] | Density of newborn cells, Dentate Gyrus Ipsilateral [1, 4] | Density of newborn cells, Subventricular Zone Contralateral [1, 4] | Density of newborn cells, Dentate Gyrus Contralateral [1, 5] | Density of newborn cells, Dentate Gyrus Ipsilateral [1, 5] | Density of newborn cells, Subventricular Zone Contralateral [1, 5] | Density of newborn cells, Subventricular Zone Ipsilateral [1, 5] | Density of newborn cells, Subventricular Zone Ipsilateral ([1]; Sildenafil 2 mg/kg oral daily 7 days from 2 h after MCA occlusion) | Density of newborn cells, Dentate Gyrus Contralateral [1, 6] | Density of newborn cells, Dentate Gyrus Ipsilateral [1, 6] | Density of newborn cells, Subventricular Zone Contralateral [1, 6] | Density of newborn cells, Subventricular Zone Ipsilateral [1, 6] | Infarct Volume, % ([2]; Sildenafil 2 mg/kg, 2 h, percentage of lesion relative to the contralateral hemisphere) | Infarct Volume, % ([2]; Sildenafil 2 mg/kg, 24 h) | Infarct Volume, % ([2]; Sildenafil 5 mg/kg, 2 h) | number of proliferating cells (dentate gyrus, SVZ, OB) [3] |
| --- | --- | --- | --- | --- | --- | --- | --- | --- | --- | --- | --- | --- | --- | --- | --- | --- |
| CCCc1nn(C)c2c(=O)[nH]c(-c3cc(S(=O)(=O)N4CCN(C)CC4)ccc3OCC)nc12 [Sildenafil] | 55 ± 2.10 cells per mm^2 | 55 ± 3.99 cells per mm^2 | 296 ± 19.74 cells per mm^2 | 56 ± 4.76 cells per mm^2 | 57 ± 4.21 cells per mm^2 | 295 ± 24.54 cells per mm^2 | 374 ± 16.07 cells per mm^2 | 383 ± 23.44 cells per mm^2 | 58 ± 5.38 cells per mm^2 | 59 ± 5.26 cells per mm^2 | 312 ± 23.79 cells per mm^2 | 437 ± 32.97 cells per mm^2 | 35.2 ± 3.3% | 35.5 ± 0.9% | 37.7 ± 4.3% | – |
| NCCN(CCN)/[N+]([O-])=N/O [DETANONOate, (Z)-1-[N-(2-aminoethyl)-N-(2-ammonioethyl)aminio]diazen-1-ium-1,2-diolate] | – | – | – | – | – | – | – | – | – | – | – | – | – | – | – | significantly increased the number of proliferating cells |
